Experimental data taken from patent EP0129667A1, “Compounds and pharmaceutical compositions for treatment of hypoovarianism” (Takeda Chemical Industries, Ltd., priority 1983, dated 1985).

Assays:
[1] = system: young oophorectomized rats; experiment: E activity-potentiating effect in young oophorectomized rats (uterine wet weight); type: in vivo, Spraque-Dawley rats; conditions: 3 days; for increase of uterine weight by the compound alone: without estrone; for Uterine wet weight (mg ± S.D.): autopsy on 4th day
Experimental: Spraque-Dawley rats, 33 days of age and 11 days after oophorectomy for elimination of endogenous E activity, were assigned to groups of 5 to 7 individuals and treated subcutaneously with solutions of esterone in sesame oil or orally with suspensions of Compound A in 1% hydroxypropylcellulose solution, either independently or in combination, for 3 days. On the 4th day, each animal was autopsied and its uterine wet weight was recorded. […] Spraque-Dawley rats, 33 days of age and 11 days after oophorectomy for elimination of endogenous E activity, were assigned to groups of 5 to 7 individuals and treated subcutaneously with solutions of esterone in sesame oil or orally with suspensions of Compound B in 1% hydroxypropylcellulose solution, either independently or in combination, for 3 days. On the 4th day, each animal was autopsied and its uterine wet weight was recorded.

[2] = system: ICR mice; experiment: Acute toxicity in mice; type: in vivo; conditions: 5-week-old ICR mice, 14 days observation, LD50 could not be calculated
Experimental: (§1) Five-week-old ICR mice and 5-week-old Spraque-Dawley rats were used in groups of 10 males and 10 females, and suspensions of compound A or B in olive oil were administered orally [2,500, 5,000 and 10,000 mg/kg of each compound] or subcutaneously (1,250, 2,500 and 5,000 mg/kg). The animals were kept under observation for 14 days.

[3] = system: Spraque-Dawley rats; experiment: Acute toxicity in rats; type: in vivo; conditions: 5-week-old Spraque-Dawley rats, 14 days observation, LD50 could not be calculated
Experimental: as §1

[4] = oral 2,500, 5,000 and 10,000 mg/kg in olive oil
[5] = subcutaneous 1,250, 2,500 and 5,000 mg/kg in olive oil

In the case of O=c1c(-c2ccccc2)coc2cc(O)ccc12 [Compound A, 7-hydroxy-isoflavone], the “potentiation of the uterine weight increasing action of estrone” value ([1]; Compound A at 50 and 100 mg/kg oral with estrone subcutaneous) is reported as “potentiated the uterine weight increasing action of estrone”, the “increase of uterine weight by the compound alone” value ([1]; Compound A at 50 and 100 mg/kg oral) is reported as “did not cause an increase of uterine weight” and the “Uterine wet weight (mg ± S.D.)” value ([1]; Table 1, Compound A 50 mg/kg daily oral, estrone 0) is reported as 35.3 ± 1.7 mg. For the same molecule, the “Uterine wet weight (mg ± S.D.)” value ([1]; Table 1, Compound A 100 mg/kg daily oral, estrone 0) was 35.9 ± 1.0 mg, the “Uterine wet weight (mg ± S.D.)” value ([1]; Table 1, estrone 1.0 µg/kg daily subcutaneous + Compound A 50 mg/kg daily oral) was 60.8 ± 4.1 mg and the “Uterine wet weight (mg ± S.D.)” value ([1]; Table 1, estrone 1.0 µg/kg daily subcutaneous + Compound A 100 mg/kg daily oral) was 70.6 ± 2.7 mg.

In the case of CC(C)Oc1ccc2c(=O)c(-c3ccccc3)coc2c1 [Compound B, 7-isopropyloxy-isoflavone], the “potentiation of the uterine weight increasing action of estrone” value ([1]; Compound B at 50 and 200 mg/kg oral with estrone subcutaneous) is reported as “potentiated the uterine weight increasing action of estrone”, the “increase of uterine weight by the compound alone” value ([1]; Compound B at 50 and 200 mg/kg oral) is reported as “did not cause an increase of uterine weight” and the “Uterine wet weight (mg ± S.D.)” value ([1]; Table 2, Compound B 50 mg/kg daily oral, estrone 0) is reported as 32.2 ± 1.3 mg. For the same molecule, the “Uterine wet weight (mg ± S.D.)” value ([1]; Table 2, Compound B 200 mg/kg daily oral, estrone 0) was 34.7 ± 1.2 mg, the “Uterine wet weight (mg ± S.D.)” value ([1]; Table 2, estrone 0.5 µg/kg daily subcutaneous + Compound B 50 mg/kg daily oral) was 39.6 ± 2.4 mg and the “Uterine wet weight (mg ± S.D.)” value ([1]; Table 2, estrone 0.5 µg/kg daily subcutaneous + Compound B 200 mg/kg daily oral) was 51.3 ± 5.3 mg. The “Uterine wet weight (mg ± S.D.)” value ([1]; Table 2, estrone 1.0 µg/kg daily subcutaneous + Compound B 50 mg/kg daily oral) was 58.2 ± 2.6 mg, the “Uterine wet weight (mg ± S.D.)” value ([1]; Table 2, estrone 1.0 µg/kg daily subcutaneous + Compound B 200 mg/kg daily oral) was 71.5 ± 7.4^+ mg and the “deaths and toxic symptoms (acute toxicity)” value (shortened to “deaths and toxic symptoms”) [2, 4] was “None of the groups showed deaths nor toxic symptoms”. The “deaths and toxic symptoms” value [2, 5] was “None of the groups showed deaths nor toxic symptoms”, the “deaths and toxic symptoms” value [3, 4] was “None of the groups showed deaths nor toxic symptoms” and the “deaths and toxic symptoms” value [3, 5] was “None of the groups showed deaths nor toxic symptoms”.

In the case of C[C@]12CC[C@@H]3c4ccc(O)cc4CC[C@H]3[C@@H]1CCC2=O [estrone, reference compound], the “Uterine wet weight (mg ± S.D.)” value ([1]; Table 1, estrone 1.0 µg/kg daily subcutaneous alone (Compound A 0)) is reported as 52.6 ± 2.3 mg, the “Uterine wet weight (mg ± S.D.)” value ([1]; Table 2, estrone 0.5 µg/kg daily subcutaneous alone (Compound B 0)) is reported as 36.3 ± 1.9 mg and the “Uterine wet weight (mg ± S.D.)” value ([1]; Table 2, estrone 1.0 µg/kg daily subcutaneous alone (Compound B 0)) is reported as 51.9 ± 4.2 mg.
